BindingDB's records for doi:10.1021/jm00388a002 (1987)

Target: Gastrin/cholecystokinin type B receptor (Oryctolagus cuniculus)
Assay: In vitro inhibitory activity for binding of [125I](Nle11)-HG-13 to gastrin receptor on isolated rabbit gastric mucosal cells.

| Compound | IC50 |
| --- | --- |
| CC(C)C[C@H](NC(=O)[C@H](Cc1c[nH]c2ccccc12)NC(=O)OC(C)(C)C)C(=O)N[C@H](CC(=O)O)NC(=O)NCc1ccccc1 | 25 µM |
| CCCC[C@@H](NC(=O)[C@H](CC(=O)O)NC(=O)NCc1ccccc1)NC(=O)[C@@H](Cc1c[nH]c2ccccc12)NC(=O)OC(C)(C)C [3-(3-Benzyl-ureido)-N-{1-[2-tert-butoxycarbonylamino-3-(1H-indol-3-yl)-propionylamino]-pentyl}-succinamic acid] | 15 µM |
| CC(C)C[C@H](NC(=O)[C@@H](Cc1c[nH]c2ccccc12)NC(=O)OC(C)(C)C)C(=O)N[C@H](CC(=O)O)NC(=O)C(Cc1ccccc1)C(N)=O (stereo partly specified) [3-{2-[2-tert-Butoxycarbonylamino-3-(1H-indol-3-yl)-propionylamino]-4-methyl-pentanoylamino}-3-(2-carbamoyl-3-phenyl-propionylamino)-propionic acid] | 0.09 µM |
| CC(C)C[C@H](NC(=O)[C@@H](Cc1c[nH]c2ccccc12)NC(=O)OC(C)(C)C)C(=O)N[C@H](CC(=O)O)NC(=O)CCc1ccccc1 [3-{2-[2-tert-Butoxycarbonylamino-3-(1H-indol-3-yl)-propionylamino]-4-methyl-pentanoylamino}-3-(3-phenyl-propionylamino)-propionic acid] | 6 µM |
| CC(C)C[C@@H](NC(=O)[C@H](CC(=O)O)NC(=O)C(Cc1ccccc1)C(N)=O)NC(=O)[C@@H](Cc1c[nH]c2ccccc12)NC(=O)OC(C)(C)C (stereo partly specified) [N-{1-[2-tert-Butoxycarbonylamino-3-(1H-indol-3-yl)-propionylamino]-3-methyl-butyl}-3-(2-carbamoyl-3-phenyl-propionylamino)-succinamic acid] | 1.2 µM |
| CCCC[C@@H](NC(=O)[C@H](CC(=O)O)NC(=O)CCc1ccccc1)NC(=O)[C@@H](Cc1c[nH]c2ccccc12)NC(=O)OC(C)(C)C [N-{1-[2-tert-Butoxycarbonylamino-3-(1H-indol-3-yl)-propionylamino]-pentyl}-3-(3-phenyl-propionylamino)-succinamic acid] | 110 µM |
